How the values were obtained:
[1] = target: T1, Adenosine receptor A1 (Homo sapiens, UniProt P30542); assay: Antagonist activity at human A1R expressed in Flp-In-CHO cells assessed as NECA-mediated reduction in forskolin-stimulated cAMP accumulation incubated for 30 to 60 mins followed by forskolin/NECA addition measured after 30 mins by LANCE cAMP assay (reference value: 8.74 +/- 0.08); type: functional, cell-based
T1 sequence (P30542 whole entry): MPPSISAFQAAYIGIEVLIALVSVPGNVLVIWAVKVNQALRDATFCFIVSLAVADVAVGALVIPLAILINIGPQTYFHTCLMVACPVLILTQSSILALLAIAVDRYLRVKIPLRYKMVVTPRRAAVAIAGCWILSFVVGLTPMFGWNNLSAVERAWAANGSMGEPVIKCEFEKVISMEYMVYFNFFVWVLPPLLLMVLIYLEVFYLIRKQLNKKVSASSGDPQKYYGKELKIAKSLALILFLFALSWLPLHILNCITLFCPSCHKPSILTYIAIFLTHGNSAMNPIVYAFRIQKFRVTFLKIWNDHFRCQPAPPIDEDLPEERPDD

[2] = target: T2, Adenosine receptor A2a (Homo sapiens, UniProt P29274); assay: Antagonist activity at human A2AR expressed in Flp-In-CHO cells assessed as NECA-mediated cAMP accumulation incubated for 30 to 60 mins followed by NECA addition measured after 30 mins by LANCE cAMP assay (reference value: 8.38 +/- 0.03); type: functional, cell-based
[3] = target: T3, Adenosine receptor A1 (Homo sapiens) (UniProt P30542); settings: Flp-In-CHO, time 60-90 min
T3 sequence (whole entry): T1 sequence (P30542 whole entry)

[4] = target: T2, Adenosine receptor A2a; settings: Flp-In-CHO, time 60-90 min
[5] = target: T1, Adenosine receptor A1; assay: Displacement of [3H]DPCPX from human A1R expressed in Flp-In-CHO cells incubated for 12 hrs by microbeta plate counter analysis; type: cell-based

T2 sequence (P29274 whole entry): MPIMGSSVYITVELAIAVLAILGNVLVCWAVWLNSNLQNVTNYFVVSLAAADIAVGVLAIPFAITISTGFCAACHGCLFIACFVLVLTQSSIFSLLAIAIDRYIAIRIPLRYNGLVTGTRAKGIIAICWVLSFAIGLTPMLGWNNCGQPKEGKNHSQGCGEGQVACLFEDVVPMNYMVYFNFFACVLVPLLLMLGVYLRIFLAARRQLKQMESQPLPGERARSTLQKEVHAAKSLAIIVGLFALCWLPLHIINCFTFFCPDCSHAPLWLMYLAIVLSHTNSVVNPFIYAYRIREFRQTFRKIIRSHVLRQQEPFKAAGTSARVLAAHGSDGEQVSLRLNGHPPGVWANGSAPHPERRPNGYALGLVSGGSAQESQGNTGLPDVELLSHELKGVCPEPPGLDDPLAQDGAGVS

Row | EC50 [1] [nM] | pKb ([3]; filed as antagonist) | pKb ([4]; filed as antagonist) | Compound | other results
1 |  | 6.67 |  | Cc1cccc(C(=O)Nc2nc3c(s2)Cc2ccccc2-3)c1C | pKb [4]: < 5.5
2 |  | 6.7 | 7.25 | COC1(OC)CC(C)(C(=O)Nc2nc3c(s2)Cc2ccccc2-3)C1 | 
3 |  | 7.57 | 6.3 | O=C(Nc1nc2c(s1)Cc1ccccc1-2)C12CC3CC(CC1C3)C2 | Ki ([5]; read-out: Ki): 72 nM
4 |  | 7.24 | 7 | O=C(Nc1nc2c(s1)Cc1ccccc1-2)C1CCCCC1 | 
5 |  | 7.29 | 6.87 | O=C(Nc1nc2c(s1)Cc1ccccc1-2)C1CCCCCC1 | 
6 |  | 7.86 | 7.4 | CC1(C(=O)Nc2nc3c(s2)Cc2ccccc2-3)CCCC1 | 
7 |  | 7.85 | 7.25 | CC1(C(=O)Nc2nc3c(s2)Cc2ccccc2-3)CCC(=O)CC1 | 
8 |  | 7.7 | 7.03 | C=C1CCC(C(=O)Nc2nc3c(s2)Cc2ccccc2-3)CC1 | 

Second part, the molecule before the results:

Row | Compound | EC50 [1] [nM] | pKb ([3]; filed as antagonist) | pKb ([4]; filed as antagonist) | other results
9 | CC(Sc1nnc(C(C)C)[nH]1)C(=O)c1ccccc1 (stereo unspecified) | 3.31 |  |  | 
10 | O=C(Nc1noc(-c2ccccc2)n1)c1cccc(Cl)c1 | 2.82 |  |  | EC50 [2]: 10.5 nM
11 | Cc1c(C(=O)Nc2nc3c(s2)Cc2ccccc2-3)ccc2cncn12 |  |  |  | pKb [3]: < 5.5; pKb [4]: < 5.5
12 | O=C(Nc1nc(C2CC2)cs1)C1COc2ccccc2C1 (stereo unspecified) | 3.24 |  |  | 
13 | COc1ccc(C(=O)Nc2nc(C)c3cc4c(cc3n2)OCO4)cc1 | 1.91 |  |  | 
14 | O=C(Nc1nc2c(s1)Cc1ccccc1-2)c1ncn2cc(Cl)ccc12 |  |  |  | pKb [3]: < 5.5
15 | O=C(CC1CCCC1)N1CCc2c(nc(N3CCCC3)[nH]c2=O)C1 |  |  |  | EC50 [2]: 4.47 nM
16 | CC1(CNc2ncc(-c3ccncc3)c(-c3cccs3)n2)OCCO1 |  | 6.38 |  | pKb [4]: < 5.5
17 | c1csc(-c2nc(NC3CCC4(CC3)OCCO4)ncc2-c2ccncc2)c1 |  | 7.07 | 6.53 | 
18 | Cc1ccc2nc(C(=O)Nc3cnc4n3CCCC4)cn2c1 |  |  |  | EC50 [2]: 4.57 nM
19 | CC(C)(CNc1ncc(-c2ccncc2)c(-c2cccs2)n1)C1CCC1 |  | 7.15 | 6.09 | 
20 | Cc1nnsc1C(=O)Nc1nc2c(s1)Cc1ccccc1-2 |  |  |  | EC50 [2]: 63.1 nM
21 | Cn1c(=O)c2[nH]c(N(CCO)CCO)nc2n(C)c1=O | 17 |  |  | EC50 [2]: 6.92 nM; Ki ([5]; read-out: pKi (converted)): 2820 nM
22 | Cc1cccnc1C(=O)Nc1nc2c(s1)Cc1ccccc1-2 |  |  |  | pKb [3]: < 5.5
23 | CC(=O)N1CCC(Nc2ncc(-c3ccncc3)c(-c3cccs3)n2)CC1 |  | 7.82 | 6.57 | 
24 | O=C(Nc1nc2ccccc2s1)N(CCO)C1CC1 | 3.63 |  |  | EC50 [2]: 6.03 nM
25 | Cc1coc(C(=O)Nc2nc3c(s2)Cc2ccccc2-3)c1C |  |  |  | pKb [3]: < 5.5
26 | c1ccc(CNc2nc(N3CCCCC3)c3nccnc3n2)nc1 | 2.51 |  |  | 
27 | COCC(O)CNc1ncc(C)c(-c2ncnn2C)n1 (stereo unspecified) | 2.34 |  |  | EC50 [2]: 4.57 nM
28 | CCC1CCC(C(=O)Nc2nc3c(s2)Cc2ccccc2-3)CC1 (stereo unspecified) |  |  |  | pKb [3]: < 5.5; pKb [4]: < 5.5
29 | c1csc(-c2nc(NC3CCCCCC3)ncc2-c2ccncc2)c1 |  | 8.1 | 6.79 | 
30 | CC(C)N1CC(C(=O)Nc2nc3ccccc3[nH]2)CC1=O (stereo unspecified) |  |  |  | EC50 [2]: 20.4 nM
31 | CCOc1nc(NC(CO)c2ccco2)ncc1Br (stereo unspecified) | 14.8 |  |  | Ki ([5]; read-out: pKi (converted)): 2450 nM
32 | CC1(CNc2ncc(-c3ccncc3)c(-c3cccs3)n2)COC1 |  |  |  | pKb [3]: < 5.5; pKb [4]: < 5.5
33 | CC(=O)NC(CC(=O)Nc1nc(C(C)=O)cs1)c1ccc(C)cc1 (stereo unspecified) | 2.57 |  |  | 

Reference: ChEMBL document CHEMBL5335785, “Structure-based virtual screening discovers potent and selective adenosine A1 receptor antagonists” (Eur J Med Chem, 2023)
